B1: DEP peptide: Dvl3-DEP peptide with amino acid sequence SEQ ID NO. 1, overexpressed in Sertoli cells (protein)
chain: PESGLEVRDRMWLKITIPNAFIGSDVVDWLYHNVEGFTDRREARKYASNLLKAGFIRHTVNKITFSEQCYYIFGD
modifications: amino acid sequence of Dvl3-DEP peptide
notes: 1, overexpressed in Sertoli cells

Columns and labels:
[1] = test system: polymerized/free Tubulin in Sertoli cells; assay: Microtubule/Tubulin polymerization test (ultracentrifugation, Western blot); assay type: cell-based, SD rat; details: after PFOS treatment
Excerpt: (§1) A total of 10 male SD rats at the age of 20 days were sacrificed and testes were collected. The testicular envelope and free seminiferous tubules were removed, and the remaining tissue was cut to 1 mm^3 with scissors and then digested successively with trypsin, protease inhibitor, collagenase, hyaluronidase, and other enzymes. Cell masses obtained from digestion were pipetted up and down with a glass Pasteur pipette and then subjected to density gradient centrifugation, and finally the volume of precipitated cells was measured and converted into the number of cells. Finally, the cells were cultivated in an F12/DMEM cell culture medium with human transferrin (5 μg/mL), bovine insulin (10 μg/mL), bacitracin (5 μg/mL), epithelial growth factor (EGF) (2.5 ng/mL), and the like. The cells were cultivated at 5% CO2 and 35° C. to obtain primary Sertoli cells.
Isolation and cultivation of cells were conducted according to the method in Example 2, and obtained cells were inoculated in a prepared 6-well plate. Cells in each group were collected immediately after the experiment ended. […] Then the polymerized cytoskeleton protein (a precipitate obtained from the ultracentrifugation) and the monomeric cytoskeleton protein (a supernatant obtained from the ultracentrifugation) in the cell lysate system were detected separately by Western blot. […]

[2] = cited from earlier work
Sertoli cells = assay: IF staining of tight junction-associated protein ZO-1 in Sertoli cells in vitro; assay type: cell-based, SD rat; details: PFOS 20 μM for 24 h, empty plasmid transfection group, day 6, vs blank control group
Excerpt: as §1, with “Sertoli cells. […]” for “Sertoli cells.”
In order to observe the tight junction morphology among Sertoli cells cultivated in vitro, IF staining (green fluorescent) was conducted using an antibody for the Sertoli cell tight junction-associated protein ZO-1 (ThermoFisher, 61-7300), and the nucleus was stained with DAPI (blue fluorescence) after the above staining. After mounting, a fluorescence microscope was used to observe and take pictures.

[3] = test system: polymerized/free Actin in Sertoli cells; assay: G-Actin/F-actin polymerization test (ultracentrifugation, Western blot); assay type: cell-based, SD rat; details: after PFOS treatment
Excerpt: as §1
Isolation and cultivation of cells were conducted according to the method in Example 2, and obtained cells were inoculated in a prepared 6-well plate. Cells in each group were collected immediately after the experiment ended. Related Actin and Tubulin polymerization tests were conducted on cells in the DEP peptide overexpression group and cells in the empty plasmid transfection group using G-Actin/F-actin polymerization detection kit (G-Actin/F-actin In Vivo Assay Biochem Kit, BK037, Cytoskeleton, Inc) and Microtubule/Tubulin polymerization detection kit (Microtubule/Tubulin In Vivo Assay Biochem Kit, BK038, Cytoskeleton, Inc). Related detection methods can refer to product descriptions. The main purpose of these tests is to separate polymerized cytoskeleton proteins (F-actin and Microtubule) and free monomeric cytoskeleton proteins (G-actin and Tubulin) in a cell lysate by ultracentrifugation. Then the polymerized cytoskeleton protein (a precipitate obtained from the ultracentrifugation) and the monomeric cytoskeleton protein (a supernatant obtained from the ultracentrifugation) in the cell lysate system were detected separately by Western blot. […]

[4] = pCI-neo empty plasmid transfection group

Molecule	Microtubule level (precipitate of ultracentrifugation, Western blot) [1, 4]	human metabolic half-life [2]	cell-cell junction interface (ZO-1 IF staining) (Sertoli cells)	F-actin level (precipitate of ultracentrifugation, Western blot) [3, 4]	Microtubule level (precipitate of ultracentrifugation, Western blot) ([1]; DEP peptide overexpression group, positive control 20 uM paclitaxel)	F-actin level (precipitate of ultracentrifugation, Western blot) ([3]; DEP peptide overexpression group, positive control 0.1 uM phalloidin)	free G-actin content in the cell lysate supernatant (Western blot) ([3]; empty plasmid transfection group vs DEP peptide overexpression group)
O=S(=O)(O)C(F)(F)C(F)(F)C(F)(F)C(F)(F)C(F)(F)C(F)(F)C(F)(F)C(F)(F)F [PFOS, Perfluorooctane sulphonate]	low, which was almost comparable to that in the negative control group	more than 5 years	significantly damaged	low, which was almost comparable to that in the negative control group			
B1					lower than that in the positive control group but significantly higher than that in the empty plasmid transfection group	lower than that in the positive control group but significantly higher than that in the empty plasmid transfection group	empty plasmid transfection group was higher than that of the DEP peptide overexpression group
